The text below walks through data of US11071735B2, “Treatment of inflammatory conditions and autoimmune diseases with glucose uptake inhibitors” (Kadmon Corporation, LLC, priority 2017, dated 2021).

Experiment [1] deals with activated human CD4+ T cells. Nature of the experiment: one-hour glycolysis assay in activated human CD4 T cells. The class given is cell-based. The settings on record: human CD4 T cells activated 24 hours, one hour treatment plus oligomycin. As for the experimental part:
In FIG. 2A, human CD4 positive T cells were activated for 24 hours prior to a one hour treatment with the indicated glucose uptake inhibitors combined with 10 μM oligomycin. In FIG. 2B, human CD4 T cells were activated for 48 hours in the presence of the glucose uptake inhibitors. IL-17 and IL-2 secreted into the supernatant was measured by ELISA (R&D systems). Proliferation was measured by Cell Titer Glo (Promega). FIG. 2C lists the IC50 values (μM) for the glucose uptake inhibitors against activated T cell glycolysis, IL-17 secretion and proliferation. […] In FIG. 3A, human CD4 positive T cells were activated for 24 hours prior to a one hour treatment with Bay876 combined with 1 μM oligomycin. In FIG. 3B, human CD4 T cells were activated for 48 hours in the presence of Bay876. L-17 secreted into the supernatant was measured by ELISA (R&D systems). Proliferation was measured by Cell Titer Glo (Promega). […] At this time, secreted IL-17, IL-2 and relative cell number were measured (FIG. 2B, right panel). […] Cells were exposed to the combination of 10 μM Oligomycin (to block mitochondrial-derived ATP) and the glucose uptake inhibitors disclosed herein for one-hour, after which glycolytically-derived ATP was measured with the Cell Titer-Glo assay kit (Promega). […] IL-17 levels were measured by ELISA (R&D systems, Human IL-17 Quantikine ELISA kit). Proliferation was measured by Cell Titer Glo (Promega). […]

The target in the next experiment is T1, GLUT1 (Homo sapiens, UniProt P11166).
T1 construct: endogenous in cells; host or cells: DLD1 WT cancer cells
T1 sequence (P11166 1-492): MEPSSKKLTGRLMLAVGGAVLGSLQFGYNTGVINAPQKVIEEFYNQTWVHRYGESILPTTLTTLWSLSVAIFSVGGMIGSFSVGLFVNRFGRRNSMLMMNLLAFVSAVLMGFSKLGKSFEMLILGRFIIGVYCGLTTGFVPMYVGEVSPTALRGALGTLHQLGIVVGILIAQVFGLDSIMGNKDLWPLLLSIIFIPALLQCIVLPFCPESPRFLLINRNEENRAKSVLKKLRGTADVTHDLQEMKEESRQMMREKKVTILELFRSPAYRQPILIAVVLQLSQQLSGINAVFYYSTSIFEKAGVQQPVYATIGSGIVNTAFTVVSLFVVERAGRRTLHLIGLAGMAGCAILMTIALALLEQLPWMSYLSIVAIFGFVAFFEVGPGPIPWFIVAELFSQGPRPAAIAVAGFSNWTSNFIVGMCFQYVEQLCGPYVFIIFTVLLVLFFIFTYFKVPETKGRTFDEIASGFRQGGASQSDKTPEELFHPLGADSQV
Nature of the experiment: glycolysis assay in DLD1 WT cells (rely on GLUT1). In kind it is cell-based. Conditions: DLD1 WT versus DLD1 GLUT1−/− cells. The method, boiled down: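 Cells […] exposed for 1 h to inhibitor plus 10 μM oligomycin to block mitochondrial ATP; remaining glycolytic ATP read by CellTiter-Glo luminescence. IC50 derived from dose-response curves.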

Turning to `Cc1c(NC(=O)c2cc(C(N)=O)nc3cc(F)ccc23)c(C(F)(F)F)nn1Cc1ccc(C#N)cc1` [Bay876], the “glycolysis in activated T cells” value in experiment [1] is recorded as “neither inhibited glycolysis”. Moreover, the “GLUT selectivity (inhibition of glycolysis)” value on GLUT1 was “selective for GLUT1”.
